By IC50 is commonly meant the concentration needed to halve the response being measured.

The source of these data is PMC10146558, “Highly Cytotoxic Copper(II) Mixed-Ligand Quinolinonato Complexes: Pharmacokinetic Properties and Interactions with Drug Metabolizing Cytochromes P450” (Pharmaceutics, 2023).

The subject of data set [1] is human liver microsomal cytochrome P450s.
Description: (§1) The cuvette contained microsomes diluted to final concentration of CYP 1 µM in 50 mM potassium phosphate buffer (pH 7.4). The tested compounds were dissolved in the same buffer, and their concentrations in the experiments ranged from 0.002 to 33.310 µM. The UV-Visible spectra were recorded at room temperature by repetitive scanning between 300 and 700 nm using Varian 500 UV/VIS spectrophotometer (Agilent Technologies, Wakefield, MA, USA). Changes of absorbance in the range of the Soret’s region (380–450 nm) were plotted against the concentration of the studied compounds. Data were analysed using GraphPad Prism 6 software (La Jolla, CA, USA).
For a further data set, the system named is cytochrome P450. The arrangement: method as in PMID 26911729. The conditions noted are these: ref [50]; cited from earlier work.
In another data set the target is CYP3A4 (Homo sapiens, UniProt P08684). As to the kind of experiment: CYP3A4 activity (midazolam 1′-hydroxylation) in human liver microsomes. The conditions noted are these: Dixon and Lineweaver–Burk plots.
Another data set deals with CYP3A4/5. As to the kind of experiment: CYP3A4/5 activity (testosterone 6β-hydroxylation) in human liver microsomes. A general note: Microsomes from liver hold many membrane-bound enzymes, among them those of drug oxidation.
Data set [2] has as its system human liver microsomal cytochrome P450s. As to the kind of experiment: Difference spectra (UV-visible spectral titration) with human liver microsomes. The conditions noted are these: read-out: Ks (spectral binding constant); spectral differences at 386 nm, CYP 1 µM, pH 7.4, room temperature.
Description: as §1
A further data set addresses T1, CYP2C19 (Homo sapiens, UniProt P33261).
T1 construct: Cryopreserved pooled human liver microsomes were obtained from Xenotech; tissue Xenotech (Lenexa, KS, USA); host or cells: pooled human liver microsomes
As to the kind of experiment: CYP2C19 activity ((S)-mephenytoin 4′-hydroxylation) in human liver microsomes. It is filed as biochemical. The settings on record: free ligand, up to 100 μM.

Sequence of CYP3A4 (P08684 2-503): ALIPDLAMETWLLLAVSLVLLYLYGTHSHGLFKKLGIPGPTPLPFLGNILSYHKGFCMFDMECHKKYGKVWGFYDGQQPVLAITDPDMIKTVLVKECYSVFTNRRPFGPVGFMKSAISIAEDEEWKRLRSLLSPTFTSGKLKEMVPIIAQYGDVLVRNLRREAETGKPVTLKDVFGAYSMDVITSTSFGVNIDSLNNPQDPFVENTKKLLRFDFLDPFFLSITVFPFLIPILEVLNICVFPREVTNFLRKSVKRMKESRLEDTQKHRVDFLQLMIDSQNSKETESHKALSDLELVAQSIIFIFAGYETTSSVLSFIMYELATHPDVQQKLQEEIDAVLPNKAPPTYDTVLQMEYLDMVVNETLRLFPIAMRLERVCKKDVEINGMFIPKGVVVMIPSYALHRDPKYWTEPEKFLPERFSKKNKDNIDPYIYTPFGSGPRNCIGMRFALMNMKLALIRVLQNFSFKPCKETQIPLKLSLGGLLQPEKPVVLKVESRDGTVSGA
T1 sequence (P33261 whole entry): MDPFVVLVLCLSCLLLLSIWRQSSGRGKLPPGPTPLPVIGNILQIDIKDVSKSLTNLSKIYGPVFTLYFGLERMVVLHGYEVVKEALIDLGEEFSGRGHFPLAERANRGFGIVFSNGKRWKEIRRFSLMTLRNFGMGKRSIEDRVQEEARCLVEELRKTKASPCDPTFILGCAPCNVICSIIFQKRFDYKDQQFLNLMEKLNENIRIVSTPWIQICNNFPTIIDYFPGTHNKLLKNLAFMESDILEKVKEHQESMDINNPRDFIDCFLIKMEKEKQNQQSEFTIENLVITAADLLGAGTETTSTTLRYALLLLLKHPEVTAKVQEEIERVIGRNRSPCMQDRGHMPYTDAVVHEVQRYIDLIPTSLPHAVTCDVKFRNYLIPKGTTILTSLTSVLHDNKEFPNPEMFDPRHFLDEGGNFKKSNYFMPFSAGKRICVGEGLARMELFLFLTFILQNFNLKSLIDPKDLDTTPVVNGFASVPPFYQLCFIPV
Description for CYP2C19: For each enzyme assay, the preliminary experiments to determine Michaelis constant (Km) and limiting velocity (Vmax) were performed to calculate the time of incubation (the specified time for which the reaction is still linear) and the values of substrate concentration (in the range corresponding to the value of Km).
The reaction mixtures were buffered by 0.1 M potassium phosphate buffer (pH 7.4) and contained a NADPH-generating system consisting of the isocitrate dehydrogenase (6 U/mL), NADP^+ (0.5 mM), isocitric acid (4 mM), and MgSO4 (5 mM). The final concentration levels of complexes were obtained by diluting a 10 mM solution with dimethyl sulfoxide (DMSO). It is known that DMSO can in some cases inhibit P450; the following measures were thus applied: (a) control samples containing organic solvent without the tested compounds were prepared and used as references; (b) DMSO levels were maintained below 0.1% to minimise the inhibition. Inhibition experiments were performed using five concentration levels of the tested compounds in the range of 10–100 µM. The maximum concentration was chosen so that in the case of inhibition, it would be possible to determine the inhibitory effect of the complexes and characterise them by determining the IC50 value. Additionally, an inhibitor-free control was used as a reference. Incubations were executed in two independent batches, and the samples were prepared and measured in triplicate at 37 °C. Analyses of the metabolites formed from the specific substrates were performed by HPLC using the Prominence system (Shimadzu, Kyoto, Japan) equipped with a LiChroCART 250-4 LiChrospher 100 RP-18 column, Chromolith® HighResolution RP-18 end-capped column (Merck, Darmstadt, Germany), or Kinetex Biphenyl column (Phenomenex, Torrace, CA, USA).
The apparent Ki values were determined by additional measurements using substrate concentrations corresponding to 1/2 Km, Km, 2 Km, and 4 Km in the case of inhibition. The type of model was selected on the basis of the Lineweaver–Burk and Dixon plots. The values of IC50 were obtained by analysing the plot of the percentage of activity remaining after inhibition versus the logarithm of the inhibitor concentration using the GraphPad Prism 6 software (La Jolla, CA, USA).
Description for CYP3A4/5: For each enzyme assay, the preliminary experiments to determine Michaelis constant (Km) and limiting velocity (Vmax) were performed to calculate the time of incubation (the specified time for which the reaction is still linear) and the values of substrate concentration (in the range corresponding to the value of Km). The amount of human liver microsomes (HLM; expressed as the amount of CYP in pmol and the concentration of HLM protein in mg/mL in the reaction vessel) in the reaction was determined using previously established protocols [40].
The reaction mixtures were buffered by 0.1 M potassium phosphate buffer (pH 7.4) and contained a NADPH-generating system consisting of the isocitrate dehydrogenase (6 U/mL), NADP^+ (0.5 mM), isocitric acid (4 mM), and MgSO4 (5 mM). The final concentration levels of complexes were obtained by diluting a 10 mM solution with dimethyl sulfoxide (DMSO). It is known that DMSO can in some cases inhibit P450; the following measures were thus applied: (a) control samples containing organic solvent without the tested compounds were prepared and used as references; (b) DMSO levels were maintained below 0.1% to minimise the inhibition. Inhibition experiments were performed using five concentration levels of the tested compounds in the range of 10–100 µM. The maximum concentration was chosen so that in the case of inhibition, it would be possible to determine the inhibitory effect of the complexes and characterise them by determining the IC50 value. Additionally, an inhibitor-free control was used as a reference. Incubations were executed in two independent batches, and the samples were prepared and measured in triplicate at 37 °C.
The type of model was selected on the basis of the Lineweaver–Burk and Dixon plots. The values of IC50 were obtained by analysing the plot of the percentage of activity remaining after inhibition versus the logarithm of the inhibitor concentration using the GraphPad Prism 6 software (La Jolla, CA, USA).

In the case of `Cc1cc2cccnc2c2ncccc12` [mphen, 5-methyl-1,10-phenanthroline], the “Changes in difference spectra on interaction with microsomal CYPs” value in data set [1] is reported as “no significant changes”.
As for `CC(=O)CC(C)=O.Cc1ccnc2c1ccc1c(C)ccnc12.O=[N+]([O-])[O-].O=[N+]([O-])[O-].[Cu+2]` [[Cu(acac)(4,7-dimethyl-1,10-phenanthroline)(H2O)](NO3)2], in the data set with cytochrome P450, the IC50 was approximately 10 µM.
Consider `O.O.O.O=[N+]([O-])[O-].O=[N+]([O-])[O-].[Cu+2]` [copper(II) nitrate trihydrate, reference compound], for which the “Type of inhibition, CYP3A4 (midazolam 1′-hydroxylation)” value at CYP3A4 is given as “non-competitive”. The Ki on CYP3A4 (read-out: Ki CYP3A4 (midazolam 1′-hydroxylation assay), substrate ½ Km to 4 Km) was determined as 8.25 ± 1.64 µM; with CYP3A4/5 (read-out: Ki CYP3A4/5 (testosterone 6β-hydroxylation assay), Dixon and Lineweaver–Burk plots, substrate ½ Km to 4 Km), 1.56 ± 0.25 µM. Further, the Kd in data set [2] worked out at 9.81 ± 0.6 µM.
For the compound `O=c1c(O)c(-c2ccccc2)[nH]c2ccccc12` [Hqui, 2-phenyl-3-hydroxy-1H-quinolin-4-one, reference compound], the “Decrease in CYP2C19 activity” value on CYP2C19 was found to be 66%. The “Changes in difference spectra on interaction with microsomal CYPs” value in data set [1] is listed as “no significant changes”. The “CYP3A4/5 activity remaining (testosterone 6β-hydroxylation), % of basal activity” value with CYP3A4/5 (at 100 μM) is “ca. 60%”.
